Results taken from publication PMC10967572, “Induction of Oxidative Stress and Ferroptosis in Triple-Negative Breast Cancer Cells by Niclosamide via Blockade of the Function and Expression of SLC38A5 and SLC7A11” (Antioxidants, 2024).

Key:
Type in all cases: cell-based, human
MB231 and TXBR100 cells [1] = assay: Cellular iron assay (Ferro-orange); conditions: niclosamide 5 μM, 30 min
Protocol: Lipid radical (ferroptosis) assay and iron assay were performed as follows. Cells were cultured on a 25 mm glass coverslip until they reached 60–70% confluency (~48 h). At the time of the experiment, cells were washed with NaCl buffer, pH 7.5 and then incubated with 1 µM of LipiRadical Green (a lipid radical detection reagent, FDV-0042, Funakoshi, Tokyo, Japan) or Ferro-orange (an iron detection probe, F374, Dojindo, Rockville, MD, USA) in NaCl buffer, pH 7.5 for 20 min and then washed with NaCl buffer, pH 7.5. To analyze the effects of modifiers of iron levels and lipid peroxidation, the cells were co-treated with the modifiers and the respective fluorescent probe for 20 min and then washed. The glass coverslip containing the cells was then probed under an inverted microscope. The fluorescence imaging was captured using a Nikon T1-E microscope with A1 confocal super-resolution module (Nikon, Dallas, TX, USA), with a 60× objective, at 488 nm. The images represent a maximum projection intensity derived from a Z-stack. The fluorescence quantification was performed by measuring the corrected total cell fluorescence (CTCF) using Image J (version: 2.14.0/1.54f) and the following formula; CTCF = (integrated density) − (area of cell of interest) × (mean fluorescence of background).

MB231 and TXBR100 cells [2] = assay: Lipid peroxidation (malondialdehyde) assay; conditions: niclosamide 2.5 and/or 5 μM, 24 h
Protocol: Control and niclosamide-treated cells were used for measurement of cellular glutathione levels as instructed in the manufacturer’s protocol (GSH-Glo assay, Promega, Madison, WI, USA). The levels of malondialdehyde were measured using lipid peroxidation kit [Lipid Peroxidation (MDA) Assay Kit (MAK085), Millipore-sigma, St. Louis, MO, USA].

MB231 and TXBR100 cells [3] = assay: Reactive oxygen species assay (DCFH-DA); conditions: niclosamide 2.5 and/or 5 μM, 24 h
Protocol: The probe of DCFH-DA was used to measure ROS. Briefly, cells were grown in a 96-well plate and then incubated with DCFH-DA (10 µM) at 37 °C for 30 min in dark. At the end of the incubation, cells were treated with different concentrations of niclosamide. Fluorescence intensity was monitored with a Microplate Reader (Glomax multi-detection system, Promega, Madison, WI, USA) at the excitation and emission wavelengths of 485 and 528 nm, respectively. Cellular fluorescence levels were expressed as % of control group (i.e., no treatment with niclosamide).

O=C(Nc1ccc([N+](=O)[O-])cc1Cl)c1cc(Cl)ccc1O [niclosamide]
cellular iron levels (MB231 and TXBR100 cells [1]): increased | malondialdehyde levels (lipid peroxidation) (MB231 and TXBR100 cells [2]): increase | ROS levels (MB231 and TXBR100 cells [3]): increase
